# Experimental data as given in US7473679B2, “Treatments employing neuronal exocytosis-inhibiting peptides” (Lipotec, S.A., priority 1999, dated 2009).
# Tested on: chromaffin cells permeabilized with digitonin
# Test: Inhibition of the release of catecholamines induced by calcium in permeabilized chromaffin cells
# Assay type: cell-based, bovine
# Conditions: peptide at 1 mM, stimulated with calcium
# Method: The neuronal-exocytosis (neurosecretion) inhibiting capabilities of the peptides of the invention became evident through a test that evaluates the strength of said peptides in inhibiting the release of catecholamines induced by calcium in chromaffin cells permeabilized with a detergent [see Example 1.2.1]. Briefly, the chromaffin cell cultures are incubated with epinephrine and norepinephrine containing tritium, are permeabilized with digitonin, and stimulated with calcium, and the amount of radioactivity released by the cells to the extracellular medium, which is a reflection of the exocytosis of said tritium-containing catecholamines, is measured.
# This test was performed to verify the neuronal exocytosis-inhibiting capabilities of the peptides synthesized in Example 1.1. In this test, the strength of said peptides is evaluated in inhibiting the release of catecholamines (norepinephrine and epinephrine) induced by calcium in chromaffin cells (obtained from suprarenal bovine glands) permeabilized with the detergent digitonin, in accordance with the method described by Gutiérrez el al. (1995 and 1997).
# Briefly, the chromaffin cell cultures are incubated with [^3H]-epinephrine and [^3H]-norepinephrine, are permeabilized with 20 μM digitonin, and stimulated with calcium (10 μM), in the presence of the peptides to be tested (separate or mixed), and the amount of radioactivity released by the cells to the extracellular medium, which is a reflection of the exocytosis of [^3H]-epinephrine and [^3H]-norepinephrine, is measured.
row,Substance,inhibition of the release of catecholamines (epinephrine and norepinephrine)
1,"SEQ. ID. No. 5: peptide from the carboxyl end of SNAP-25 [SEQ. ID. No. 4], (COOH) peptide (RIMEKADSNKTRIDEANQ)",approximately 40%
2,"SEQ. ID. No. 6: peptide from the carboxyl end of SNAP-25 [SEQ. ID. No. 4], (COOH) peptide (ADSNKTRIDEANQRATKML)",approximately 40%
3,SEQ. ID. No. 2: hexapeptide from the amino end of protein SNAP-25 (EEMQRR),approximately 20%
4,SEQ. ID. No. 3: peptide with 13 amino acids from the amino end of protein SNAP-25 (ELEEMQRRADQLA),approximately 35%
